Test results as given in ChEMBL document CHEMBL1201862, “PubChem BioAssay data set” (2004).
Counter-ions that a name gives are not always drawn. Activity calls are given as the source filed them.

How the values were obtained:
[1] = target: Dual specificity tyrosine-phosphorylation-regulated kinase 1A (Rattus norvegicus, UniProt Q63470); type: biochemical, Homo sapiens
HEK293 [2] = assay: inhibition of NOD1-driven NF-kB reporter – cell-based, luminescence, uHTS, primary screen (AID 1578); type: functional; conditions: Homo sapiens
HEK293 [3] = assay: NOD2 signaling inhibitors in MDP-stimulated cells, cell-based, uHTS, luminescence (AID 2001); type: functional; conditions: Homo sapiens
HEK293 [4] = assay: cells; type: functional, cell-based; conditions: Homo sapiens
HEK293 [5] = assay: cells; conditions: Homo sapiens
[6] = tested on: Streptococcus sp. 'group A'; assay: Streptococcus pyogenes SK(-)GAS viability under kanamycin – luminescence, BacTiterGlo, confirmation, counter-screen for streptokinase expression inhibitor project, dose response (AID 1900); type: functional, organism-based
Streptococcus = assay: GAS UMAA2166 growth inhibition – luminescence, BacTiterGlo, counter-screen for streptokinase expression inhibitor project, dose response (AID 1915); type: functional, organism-based;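 note: potency for reduction of bacterial viability or growth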
HEK293 [7] = assay: cells; type: functional, cell-based; conditions: Homo sapiens; remark: listed apart in the source
SUMO-activating enzyme [8] = target: T1, SUMO-activating enzyme (Homo sapiens, UniProt Q9UBT2); assay: blockers of UBC9-mediated SUMO conjugation – biochemical, AlphaScreen, SUMOylation inhibitor project, confirmation (AID 2018); type: functional
INS1 = assay: INS-1E survival protection against cytokine death – cell-based, luminescence, retest, dose response (AID 449756); type: functional; conditions: Rattus norvegicus;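 note: cell death triggered by IL-1 beta plus TNF-alpha plus IFN-gamma mixture; protective hits raise ATP signal compared with cytokine alone wells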
[9] = target: T2, Endoribonuclease toxin MazF (Escherichia coli K-12, UniProt P0AE70); assay: substrate-only fluorescence increase artefacts – biochemical, single-stranded RNase substrate, counter-screen for MazEF activator project, dose response (AID 588502); type: functional
T2 sequence (P0AE70 whole entry): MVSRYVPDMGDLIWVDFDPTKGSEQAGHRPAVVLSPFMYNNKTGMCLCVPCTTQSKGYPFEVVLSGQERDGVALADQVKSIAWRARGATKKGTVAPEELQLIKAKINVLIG

[10] = target: T3, Heat shock factor protein 1 (Mus musculus, UniProt P38532); assay: enhancement of HSF1-driven luciferase signal – cell-based, NIH3T3, luminescence, dose retest, confirmation (AID 435004); type: functional;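 note: stress induced by proteasome inhibitor MG132 added 30 min after compound; luciferase reporter driven by HSF1 response element in NIH3T3 cells; actives raise luminescence as potentiators of the MG132 stress response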
T3 sequence (P38532 whole entry): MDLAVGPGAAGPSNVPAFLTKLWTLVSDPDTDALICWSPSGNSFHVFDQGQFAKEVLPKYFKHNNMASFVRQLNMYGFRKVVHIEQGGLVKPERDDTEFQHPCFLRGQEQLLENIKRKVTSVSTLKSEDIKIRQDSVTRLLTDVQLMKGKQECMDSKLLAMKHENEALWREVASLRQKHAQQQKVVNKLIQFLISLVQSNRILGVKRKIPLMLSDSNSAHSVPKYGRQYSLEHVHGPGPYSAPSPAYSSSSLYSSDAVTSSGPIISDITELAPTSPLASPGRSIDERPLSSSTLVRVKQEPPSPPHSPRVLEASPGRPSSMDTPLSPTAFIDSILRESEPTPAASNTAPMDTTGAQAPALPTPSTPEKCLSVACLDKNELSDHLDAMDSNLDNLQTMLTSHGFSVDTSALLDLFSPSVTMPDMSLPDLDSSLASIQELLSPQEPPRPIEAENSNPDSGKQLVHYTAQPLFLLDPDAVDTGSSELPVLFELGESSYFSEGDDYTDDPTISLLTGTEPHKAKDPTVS

SUMO-activating enzyme [11] = target: T1, SUMO-activating enzyme; assay: blockers of SAE1/SAE2–UBC9 SUMO transfer – biochemical, HTRF, uHTS, primary screen (AID 2006); type: protein-complex assay
[12] = target: T2, Endoribonuclease toxin MazF; assay: activation of MazEF endoribonuclease cleavage – biochemical, fluorescence, single-stranded RNA substrate, uHTS hits, dose response (AID 588481); type: functional
[13] = target: Glucose-6-phosphate 1-dehydrogenase (Homo sapiens, UniProt P11413); assay: inhibition of Homo sapiens G6PD, dose series – biochemical, fluorescence, selectivity assay for P. falciparum G6PD inhibitor project, dose response (AID 504792); type: functional
[14] = target: Peroxisome proliferator-activated receptor gamma/Nuclear receptor coactivator 2 (Homo sapiens, UniProt P37231); assay: (§1) TR-FRET dose response biochemical High Throughput Screening assay for agonists of the steroid receptor coactivator 2 (SRC-2) recruitment by the peroxisome proliferator-activated receptor gamma (PPAR gamma): non-selective agonists. [Related pubchem assays: 1297, 1032 ]; type: functional
[15] = target: Peroxisome proliferator-activated receptor gamma/Nuclear receptor coactivator 3 (Homo sapiens, UniProt P37231); assay: as §1, with “3 (SRC-3)” for “2 (SRC-2)”, “1301 (Confirmation screen.), 1048 (Primary screen.)]” for “1297, 1032 ]”; type: functional
[16] = target: Peroxisome proliferator-activated receptor gamma/Nuclear receptor coactivator 1 (Homo sapiens, UniProt P37231); assay: as §1, with “1 (SRC-1)” for “2 (SRC-2)”, “assays (depositor defined):AID1300, AID1808, AID504735, AID631]” for “assays: 1297, 1032 ]”; type: protein assay
HEK293 [17] = assay: EBV LMP1 TES2 canonical NF-kB signalling blockers – cell-based, HEK293, luciferase, cherry-pick, dose response (AID 588343); type: functional; conditions: Homo sapiens
[18] = target: Voltage-gated inwardly rectifying potassium channel KCNH2 (Homo sapiens, UniProt Q12809); conditions: Potency;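 note: confirmatory quantitative high-throughput screen measuring inhibition of hERG channel activity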
[19] = target: T4, DNA repair protein RAD52 homolog (Homo sapiens, UniProt P43351); type: functional, biochemical
T4 sequence (P43351 whole entry): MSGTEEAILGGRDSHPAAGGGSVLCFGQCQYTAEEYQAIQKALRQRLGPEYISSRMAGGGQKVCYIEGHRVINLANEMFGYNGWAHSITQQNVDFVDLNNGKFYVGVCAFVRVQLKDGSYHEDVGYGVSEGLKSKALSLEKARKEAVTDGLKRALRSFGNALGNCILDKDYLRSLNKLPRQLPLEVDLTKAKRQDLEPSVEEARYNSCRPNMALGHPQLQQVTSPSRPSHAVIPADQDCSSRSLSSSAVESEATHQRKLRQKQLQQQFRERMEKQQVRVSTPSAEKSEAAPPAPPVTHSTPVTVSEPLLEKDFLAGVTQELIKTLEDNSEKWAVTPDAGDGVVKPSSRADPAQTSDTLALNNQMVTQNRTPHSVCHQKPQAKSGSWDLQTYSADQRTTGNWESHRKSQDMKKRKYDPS

T1 sequence (Q9UBE0 whole entry): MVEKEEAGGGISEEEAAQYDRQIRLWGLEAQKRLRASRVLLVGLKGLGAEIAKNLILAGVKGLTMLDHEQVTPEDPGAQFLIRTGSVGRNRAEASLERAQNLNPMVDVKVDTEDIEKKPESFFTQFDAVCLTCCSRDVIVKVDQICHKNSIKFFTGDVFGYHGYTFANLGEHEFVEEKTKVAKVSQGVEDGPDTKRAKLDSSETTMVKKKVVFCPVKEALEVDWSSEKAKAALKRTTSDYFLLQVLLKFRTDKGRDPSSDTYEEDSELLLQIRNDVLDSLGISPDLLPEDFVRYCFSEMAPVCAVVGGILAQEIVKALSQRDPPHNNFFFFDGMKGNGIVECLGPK
T1 sequence (Q9UBT2 whole entry): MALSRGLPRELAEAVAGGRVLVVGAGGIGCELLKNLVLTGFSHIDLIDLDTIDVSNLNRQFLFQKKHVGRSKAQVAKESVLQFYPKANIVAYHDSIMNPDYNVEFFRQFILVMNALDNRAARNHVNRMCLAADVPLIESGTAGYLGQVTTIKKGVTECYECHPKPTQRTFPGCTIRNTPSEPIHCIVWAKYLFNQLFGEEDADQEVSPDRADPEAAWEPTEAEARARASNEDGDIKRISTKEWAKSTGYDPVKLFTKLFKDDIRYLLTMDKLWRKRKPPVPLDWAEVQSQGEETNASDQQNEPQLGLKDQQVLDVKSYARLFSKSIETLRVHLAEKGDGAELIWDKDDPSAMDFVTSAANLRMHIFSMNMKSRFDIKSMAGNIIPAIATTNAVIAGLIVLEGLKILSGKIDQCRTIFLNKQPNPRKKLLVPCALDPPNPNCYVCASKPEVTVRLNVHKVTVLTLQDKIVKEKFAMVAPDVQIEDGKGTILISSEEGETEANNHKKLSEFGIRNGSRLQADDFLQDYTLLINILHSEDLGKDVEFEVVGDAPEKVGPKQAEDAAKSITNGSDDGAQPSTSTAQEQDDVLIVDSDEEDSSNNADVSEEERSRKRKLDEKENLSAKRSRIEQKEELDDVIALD
Peroxisome proliferator-activated receptor gamma/Nuclear receptor coactivator 3, sequence (P37231 whole entry): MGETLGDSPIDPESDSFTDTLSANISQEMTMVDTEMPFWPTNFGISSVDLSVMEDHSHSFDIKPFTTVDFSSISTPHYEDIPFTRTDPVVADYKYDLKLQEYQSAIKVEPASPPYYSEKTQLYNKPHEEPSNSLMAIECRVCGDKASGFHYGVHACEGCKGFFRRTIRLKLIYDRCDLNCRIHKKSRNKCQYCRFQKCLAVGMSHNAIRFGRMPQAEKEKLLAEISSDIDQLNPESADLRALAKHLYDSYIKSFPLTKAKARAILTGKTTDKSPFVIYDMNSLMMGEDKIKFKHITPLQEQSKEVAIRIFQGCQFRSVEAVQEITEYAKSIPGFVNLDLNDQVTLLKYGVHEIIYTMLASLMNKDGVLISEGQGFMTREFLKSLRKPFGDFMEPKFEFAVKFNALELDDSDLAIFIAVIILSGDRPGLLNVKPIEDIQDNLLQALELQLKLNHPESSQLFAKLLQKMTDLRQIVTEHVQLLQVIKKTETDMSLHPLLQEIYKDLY
Peroxisome proliferator-activated receptor gamma/Nuclear receptor coactivator 3, sequence (Q9Y6Q9 whole entry, further chain): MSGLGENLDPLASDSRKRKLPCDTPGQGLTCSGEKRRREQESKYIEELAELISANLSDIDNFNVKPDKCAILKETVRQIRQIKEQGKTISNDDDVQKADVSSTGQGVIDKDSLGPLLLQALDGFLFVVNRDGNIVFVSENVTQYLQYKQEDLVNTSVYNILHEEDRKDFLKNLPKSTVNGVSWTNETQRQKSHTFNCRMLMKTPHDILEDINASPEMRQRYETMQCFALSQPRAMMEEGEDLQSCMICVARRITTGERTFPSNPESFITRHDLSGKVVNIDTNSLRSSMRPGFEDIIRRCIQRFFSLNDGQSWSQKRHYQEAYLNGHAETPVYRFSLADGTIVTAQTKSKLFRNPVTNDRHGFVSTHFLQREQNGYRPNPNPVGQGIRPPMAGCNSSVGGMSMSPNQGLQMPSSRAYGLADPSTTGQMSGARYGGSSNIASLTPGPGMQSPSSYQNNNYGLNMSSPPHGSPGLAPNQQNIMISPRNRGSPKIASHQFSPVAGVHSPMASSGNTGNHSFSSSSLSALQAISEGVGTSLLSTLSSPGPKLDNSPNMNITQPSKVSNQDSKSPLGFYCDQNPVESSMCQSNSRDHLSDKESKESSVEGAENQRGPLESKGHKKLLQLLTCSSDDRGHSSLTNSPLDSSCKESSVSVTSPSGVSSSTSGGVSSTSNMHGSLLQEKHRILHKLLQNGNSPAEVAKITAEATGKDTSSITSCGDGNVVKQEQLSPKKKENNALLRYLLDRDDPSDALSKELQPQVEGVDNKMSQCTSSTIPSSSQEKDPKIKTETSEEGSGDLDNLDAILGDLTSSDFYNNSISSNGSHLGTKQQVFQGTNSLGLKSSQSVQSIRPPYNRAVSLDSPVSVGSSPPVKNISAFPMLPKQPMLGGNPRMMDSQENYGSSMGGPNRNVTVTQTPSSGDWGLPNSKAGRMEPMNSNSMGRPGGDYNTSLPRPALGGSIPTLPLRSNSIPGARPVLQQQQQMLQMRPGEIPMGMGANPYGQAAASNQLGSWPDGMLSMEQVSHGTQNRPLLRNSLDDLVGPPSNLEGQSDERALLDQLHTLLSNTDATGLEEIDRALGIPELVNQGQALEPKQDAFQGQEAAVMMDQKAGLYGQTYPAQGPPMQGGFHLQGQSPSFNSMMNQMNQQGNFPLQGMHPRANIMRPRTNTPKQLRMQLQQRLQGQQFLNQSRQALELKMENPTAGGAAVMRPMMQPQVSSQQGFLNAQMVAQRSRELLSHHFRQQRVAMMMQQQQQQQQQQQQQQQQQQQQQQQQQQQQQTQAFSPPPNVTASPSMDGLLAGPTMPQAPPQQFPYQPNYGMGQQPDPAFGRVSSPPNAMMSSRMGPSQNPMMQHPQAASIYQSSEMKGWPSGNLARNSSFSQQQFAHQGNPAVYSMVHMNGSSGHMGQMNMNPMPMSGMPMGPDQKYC
Peroxisome proliferator-activated receptor gamma/Nuclear receptor coactivator 2, sequence (P37231 whole entry): as the sequence (P37231 whole entry) above
Peroxisome proliferator-activated receptor gamma/Nuclear receptor coactivator 2, sequence (Q15596 whole entry, further chain): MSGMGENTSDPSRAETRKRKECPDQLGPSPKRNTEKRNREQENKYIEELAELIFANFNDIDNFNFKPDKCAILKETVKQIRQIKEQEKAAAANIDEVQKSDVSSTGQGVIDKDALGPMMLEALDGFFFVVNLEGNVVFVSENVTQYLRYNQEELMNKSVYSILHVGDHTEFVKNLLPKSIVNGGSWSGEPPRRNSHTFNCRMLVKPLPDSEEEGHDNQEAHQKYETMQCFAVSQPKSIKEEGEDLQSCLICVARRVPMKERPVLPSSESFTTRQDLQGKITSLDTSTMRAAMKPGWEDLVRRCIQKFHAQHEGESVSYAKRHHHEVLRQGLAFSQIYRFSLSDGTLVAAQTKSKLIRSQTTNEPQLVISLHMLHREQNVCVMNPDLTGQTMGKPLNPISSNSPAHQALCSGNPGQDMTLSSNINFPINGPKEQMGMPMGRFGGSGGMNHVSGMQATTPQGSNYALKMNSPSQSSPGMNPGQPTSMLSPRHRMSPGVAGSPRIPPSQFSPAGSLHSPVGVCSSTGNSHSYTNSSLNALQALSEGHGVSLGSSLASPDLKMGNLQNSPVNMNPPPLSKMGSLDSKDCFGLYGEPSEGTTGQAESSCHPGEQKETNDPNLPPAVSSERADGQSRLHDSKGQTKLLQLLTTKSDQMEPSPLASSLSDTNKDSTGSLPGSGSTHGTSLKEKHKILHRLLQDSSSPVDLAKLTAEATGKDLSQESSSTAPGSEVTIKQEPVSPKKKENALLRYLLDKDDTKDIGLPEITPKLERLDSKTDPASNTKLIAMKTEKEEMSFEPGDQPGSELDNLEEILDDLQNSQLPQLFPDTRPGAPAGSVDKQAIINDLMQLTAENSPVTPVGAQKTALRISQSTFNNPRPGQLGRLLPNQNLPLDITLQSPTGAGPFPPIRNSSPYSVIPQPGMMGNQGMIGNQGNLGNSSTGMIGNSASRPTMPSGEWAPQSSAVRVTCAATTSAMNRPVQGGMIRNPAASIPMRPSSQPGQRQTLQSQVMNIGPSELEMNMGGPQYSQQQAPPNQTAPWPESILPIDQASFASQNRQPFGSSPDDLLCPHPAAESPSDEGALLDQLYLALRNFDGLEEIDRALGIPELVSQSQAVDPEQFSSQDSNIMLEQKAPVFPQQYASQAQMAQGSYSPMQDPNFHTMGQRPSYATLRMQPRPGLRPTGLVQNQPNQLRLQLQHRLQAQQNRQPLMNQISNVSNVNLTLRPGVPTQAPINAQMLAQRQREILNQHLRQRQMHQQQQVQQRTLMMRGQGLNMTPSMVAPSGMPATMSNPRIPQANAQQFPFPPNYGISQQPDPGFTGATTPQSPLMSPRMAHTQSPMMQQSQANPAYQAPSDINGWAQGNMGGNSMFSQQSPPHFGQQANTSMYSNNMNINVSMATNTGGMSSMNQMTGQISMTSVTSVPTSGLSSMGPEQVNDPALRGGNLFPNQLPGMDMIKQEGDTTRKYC

Q: Which AC50 [1] does the source give for `COC(=O)c1oc2ccc(OC)cc2c1N` here?
A: 1.56 µM (active)

Q: How did the EC50 (HEK293 [2]) turn out when `N#Cc1c(O)nc(SCc2cccc(C(F)(F)F)c2)nc1-c1ccccc1` was run?
A: 6.55 µM (active)

Q: What about the IC50 (HEK293 [3]) of the same compound?
A: 13.2 µM (inactive)

Q: And the IC50 (HEK293 [4])?
A: 19 µM (active)

Q: And the IC50 (HEK293 [5])?
A: > 20 µM (inactive)

Q: What about the EC50 [6] of the same compound?
A: 2.63 µM (active)

Q: And the EC50 (Streptococcus)?
A: 10.3 µM (active)

Q: And the IC50 (HEK293 [7])?
A: > 20 µM (inactive)

Q: For `O=C1C([N-]S(=O)(=O)c2cccs2)=C([n+]2cccc(Cc3ccccc3)c2)C(=O)c2ccccc21`, which IC50 (SUMO-activating enzyme [8]) is on record?
A: 9.51 µM (active)

Q: What about the AC50 (INS1) of the same compound?
A: 2.69 µM (active)

Q: And the EC50 [6]?
A: 1.53 µM (active)

Q: And the EC50 [9]?
A: 36.5 µM (inactive)

Q: What about the EC50 [10] of the same compound?
A: > 260 µM (inactive)

Q: And the EC50 (Streptococcus)?
A: 1.6 µM (active)

Q: What about the IC50 (SUMO-activating enzyme [11]) of the same compound?
A: 12.9 µM (active)

Q: What about the EC50 [12] of the same compound?
A: > 99 µM (inactive)

Q: How did the IC50 [13] turn out when `CCCn1cc(S(=O)(=O)CC(=O)Nc2ccc(OC)cc2OC)c2ccccc21` was run?
A: 59.9 µM (inactive)

Q: Which results are given for `CCn1c(=O)cc(SCC(=O)Nc2ccc3c(c2)OCO3)c2ccccc21`?
A: EC50 [14]: 35.4 µM (not active); EC50 [15]: > 79.4 µM (not active); EC50 [16]: 52.9 µM (inactive)

Q: `COCCNC(=O)CSc1cc(=O)n(C)c2cc(Cl)ccc12` was tested. Which EC50 [14] did it give?
A: > 79.4 µM (not active)

Q: What about the EC50 [15] of the same compound?
A: > 79.4 µM (not active)

Q: And the EC50 [16]?
A: > 79.4 µM (inactive)

Q: How did the AC50 (HEK293 [17]) turn out when `NC(=S)NN=Cc1nccc2c(N)cccc12` was run?
A: 1.55 µM (active)

Q: Which AC50 [18] does the source give for `O=C(O)C1=CCCN(CCON=C(c2ccccc2)c2ccccc2)C1` here?
A: 35.5 µM (inconclusive)

Q: What does the source list for `CN(C)c1nc(N)c(C(=O)NC(=N)N)nc1Cl` [5-(N,N-DIMETHYL)AMILORIDE HYDROCHLORIDE]?
A: AC50 [19]: 18 µM (active); AC50 [18]: 17.8 µM (inconclusive)
